Assays:
Assay type in all cases: cell-based
[1] = tested on: Brettanomyces bruxellensus; assay: Growth in 10% apple juice beverage with combinations of LAE & cinnamic acid; log (QA/Qa+QB/Qb) calculation; settings: for amount of growth (normalized) to control: LAE 0 ppm
From the text: (§1) Trans-cinnamic acid and lauric arginate were combined in the following beverage formulation: [table] […] The analysis of the interaction between lauric arginate and cinnamic acid can be refined through use of a mathematical method developed by Voorspuij and Nass (Arch. Int. pharmacodyn. 59:211 1957) (generally accepted among those practiced in the art.) Herein, the interactions between two active substances can be explored. First the quantity (Qa=Molar Cone) of compound A required for an end point (concentration required to stabilize product for 16 weeks) is established. Similarly, the quantity (Qb =Molar cone) of substance B required to establish the same endpoint is established. Thereafter, mixtures of A & B, in quantities QA & Qs are established that also define endpoints. […] If the sum of the ratios for a mixture of A & Bare=1, then the interaction is considered additive. […] Calculation of log (QA/Qa+QB/Qb) for LAE+trans Cinnamic Acid vs Brettanomyces bruzellensus

[2] = tested on: Brettanomyces nardensis; assay: as above; settings: for amount of growth (normalized) to control: LAE 0 ppm
From the text: as §1, with “bruzellensus” left out

[3] = tested on: Saccharomyces cerevsiae; assay: as above; settings: for amount of growth (normalized) to control: LAE 0 ppm
From the text: as §1, with “[table] • Values reflect amount of growth (normalized) to control (0 ppm LAE & 0 ppm Cinnamic acid) for each pH tested.” for “[table]”, “Saccharomyces […]” for “Brettanomyces bruzellensus”

[4] = tested on: seven bio-indicator strains (Zygosaccharomyce baili, Brettanomyces species, Saccharomyces cerevisiae, Paecilomyces lilacinus, Zygosaccharomyces bisporus …); assay: Example 2: growth/no growth of seven bio-indicator strains in 4% apple juice beverage, 16 weeks; settings: FIGS. 1a, 1b; stand alone; pH 3.4; 16 weeks at 25° C.
From the text: A single preparation of base beverage was employed to prepare each of five tests and consisted of 4% apple juice, 68 g sucrose/L, 52 g glucose/L, 2 g fructose/L prepared in batch water that was formulated to 90 ppm hardness with calcium chloride and magnesium chloride. […] The total combined quantity of sodium malate and malic acid was near constant, but the ratio of malic acid and malate varied slightly given the presence or absence of lauric arginate or cinnamic acid. Where required, lauric arginate or cinnamic acid was supplemented from separately prepared stock solutions. Each of the five tests employed the same bio-indicator organisms; Growth (+) versus no growth (-) established by visual inspection or spectrophotometrically. […] Y3, Zygosaccharomyce baili, Pepsi isolate 906; C-7UP, Brettanomyces species, Pepsi Isolate; Spore, an ascospore preparation of Saccharomyces cerevisiae 99 a Pepsi Isolate; […], Zygosaccharomyces baili, ATCC 60484; Spores, M7, Paecilomyces lilacinus ATCC 90461; […], Zygosaccharomyces bisporus ATCC 52407; Spores, M4, Talaromvces flavus var. flavus ATCC 10512. Samples were incubated for period of 16 weeks at 25° C. in vessels protective against evaporation.

[5] = stand alone, end point = concentration required to stabilize product for 16 weeks

## O=C(O)/C=C/c1ccccc1 [Cinnamic Acid, trans-cinnamic acid]
[1]; QLAE 0, QCA 75
  QA/Qa + QB/Qb: 1.00
  QLAE/QLAE*: 0.00
  QNaB/QNAB*: 1.00
  log (QA/Qa + QB/Qb): 0.0000
[1]; pH 3.0, Cinnamic Acid 10 ppm
  amount of growth (normalized) to control: 85%
[1]; pH 3.0, Cinnamic Acid 20 ppm
  amount of growth (normalized) to control: 82%
[1]; pH 3.0, Cinnamic Acid 50 ppm
  amount of growth (normalized) to control: 4%
[1]; pH 3.0, Cinnamic Acid 75 ppm
  amount of growth (normalized) to control: 1%
[1]; pH 3.0, Cinnamic Acid 100 ppm
  amount of growth (normalized) to control: 1%
[1]; pH 3.5, Cinnamic Acid 10 ppm
  amount of growth (normalized) to control: 90%
[1]; pH 3.5, Cinnamic Acid 20 ppm
  amount of growth (normalized) to control: 89%
[1]; pH 3.5, Cinnamic Acid 50 ppm
  amount of growth (normalized) to control: 27%
[1]; pH 3.5, Cinnamic Acid 75 ppm
  amount of growth (normalized) to control: 0%
[1]; pH 3.5, Cinnamic Acid 100 ppm
  amount of growth (normalized) to control: 0%
[1]; pH 4.0, Cinnamic Acid 10 ppm
  amount of growth (normalized) to control: 99%
[1]; pH 4.0, Cinnamic Acid 20 ppm
  amount of growth (normalized) to control: 96%
[1]; pH 4.0, Cinnamic Acid 50 ppm
  amount of growth (normalized) to control: 65%
[1]; pH 4.0, Cinnamic Acid 75 ppm
  amount of growth (normalized) to control: 1%
[1]; pH 4.0, Cinnamic Acid 100 ppm
  amount of growth (normalized) to control: 1%
[1]; [5]
  QCA* (quantity of cinnamic acid alone required for the end point): QCA* 75
[2]; QLAE 0, QCA 50
  QA/Qa + QB/Qb: 1.00
  QLAE/QLAE*: 0.00
  QNaB/QNAB*: 1.00
  log (QA/Qa + QB/Qb): 0.0000
[2]; pH 3.0, Cinnamic Acid 10 ppm
  amount of growth (normalized) to control: 89%
[2]; pH 3.0, Cinnamic Acid 20 ppm
  amount of growth (normalized) to control: 67%
[2]; pH 3.0, Cinnamic Acid 50 ppm
  amount of growth (normalized) to control: 1%
[2]; pH 3.0, Cinnamic Acid 75 ppm
  amount of growth (normalized) to control: 0%
[2]; pH 3.0, Cinnamic Acid 100 ppm
  amount of growth (normalized) to control: 0%
[2]; pH 3.5, Cinnamic Acid 10 ppm
  amount of growth (normalized) to control: 88%
[2]; pH 3.5, Cinnamic Acid 20 ppm
  amount of growth (normalized) to control: 79%
[2]; pH 3.5, Cinnamic Acid 50 ppm
  amount of growth (normalized) to control: 2%
[2]; pH 3.5, Cinnamic Acid 75 ppm
  amount of growth (normalized) to control: 1%
[2]; pH 3.5, Cinnamic Acid 100 ppm
  amount of growth (normalized) to control: 1%
[2]; pH 4.0, Cinnamic Acid 10 ppm
  amount of growth (normalized) to control: 118%
[2]; pH 4.0, Cinnamic Acid 20 ppm
  amount of growth (normalized) to control: 101%
[2]; pH 4.0, Cinnamic Acid 50 ppm
  amount of growth (normalized) to control: 5%
[2]; pH 4.0, Cinnamic Acid 75 ppm
  amount of growth (normalized) to control: 2%
[2]; pH 4.0, Cinnamic Acid 100 ppm
  amount of growth (normalized) to control: 1%
[2]; [5]
  QCA* (quantity of cinnamic acid alone required for the end point): QCA* 50
[3]; QLAE 0, QCA 300
  QA/Qa + QB/Qb: 1.00
  QLAE/QLAE*: 0.00
  QNaB/QNAB*: 1.00
  log (QA/Qa + QB/Qb): 0.0000
[3]; pH 3.0, Cinnamic Acid 10 ppm
  amount of growth (normalized) to control: 80%
[3]; pH 3.0, Cinnamic Acid 20 ppm
  amount of growth (normalized) to control: 74%
[3]; pH 3.0, Cinnamic Acid 50 ppm
  amount of growth (normalized) to control: 50%
[3]; pH 3.0, Cinnamic Acid 75 ppm
  amount of growth (normalized) to control: 26%
[3]; pH 3.0, Cinnamic Acid 100 ppm
  amount of growth (normalized) to control: 11%
[3]; pH 3.5, Cinnamic Acid 10 ppm
  amount of growth (normalized) to control: 96%
[3]; pH 3.5, Cinnamic Acid 20 ppm
  amount of growth (normalized) to control: 85%
[3]; pH 3.5, Cinnamic Acid 50 ppm
  amount of growth (normalized) to control: 61%
[3]; pH 3.5, Cinnamic Acid 75 ppm
  amount of growth (normalized) to control: 44%
[3]; pH 3.5, Cinnamic Acid 100 ppm
  amount of growth (normalized) to control: 22%
[3]; pH 4.0, Cinnamic Acid 10 ppm
  amount of growth (normalized) to control: 96%
[3]; pH 4.0, Cinnamic Acid 20 ppm
  amount of growth (normalized) to control: 87%
[3]; pH 4.0, Cinnamic Acid 50 ppm
  amount of growth (normalized) to control: 72%
[3]; pH 4.0, Cinnamic Acid 75 ppm
  amount of growth (normalized) to control: 54%
[3]; pH 4.0, Cinnamic Acid 100 ppm
  amount of growth (normalized) to control: 39%
[3]; [5]
  QCA* (quantity of cinnamic acid alone required for the end point): QCA* 300
[4]
  concentration required to inhibit all seven bio-indicator strains: 1.61 mM
